Data from patent publication US20110257177A1, “BENZYLTHIOTETRAZOLE INHIBITORS OF STORE OPERATED CALCIUM RELEASE” (CalciMedica, Inc., priority 2008, published 2011).

tested on: JR^251 or RBL cells; test: Fluorescence-based assay of store-operated calcium entry, IC50 in either JR^251 or RBL cells, or both; format: cell-based
Experimental: B. Fluorescence-based Assay of Store-Operated Calcium Entry in RBL-2H3Cells.
RBL-2H3 cells are obtained from ATCC and maintained in complete medium with 10% FBS at 37° C./6% CO2.
The day prior to performing the assay, RBL-2H3 cells are plated in 50 μL of complete medium in a 384 well plate. Cells are grown at 37° C./6% CO2 overnight and grow to 50-60% confluence by the next day. On the assay day, 1.5 μM Fluo-4-AM dye (Invitrogen) in complete medium is added and incubated for 1 hour at RT. Cells are washed twice in Ca^2+-free HBSS buffer and 35 μL Ca^2+-free HBSS buffer is added to each well. 10 μL of a test compound prepared in a Ca^2+-free HBSS solution at 4.5× of the desired concentration is added to a well and incubated for 5 minutes at RT. 10 μL of thapsigargin prepared in a Ca^2+-free HBSS solution at 5.5× of the desired concentration (5.5 uM) is added to each well and incubated for an additional 25 minutes. The initial baseline fluorescence signal is measured with a FLIPR^384 (Molecular Devices) plate reader. 5 μL of 12× calcium in HBSS (12 mM) is added and changes in cellular fluorescence are measured with the FLIPR^384 plate reader. In each well, the change in the fluorescent signal as a function of time due to calcium entry into the cell is determined by calculating the difference between the fluorescent signal measured 7 seconds after calcium addition and the initial baseline fluorescence signal at time zero (t=0). This parameter is designated Upslope. The IC50 value is calculated as the concentration at which 50% of the Upslope is inhibited.
C. Fluorescence-based Assay of Store-Operated Calcium Entry in Jurkat Cells.
Jurkat E6-1 cells were obtained from ATCC and maintained in complete medium with 10% FBS at 37° C./6% CO2.
The day prior to performing the assay, Jurkat E6-1 cells are seeded at a density of 2 million cells/mL in complete medium in a T-175 flask. Cells are grown at 37° C./6% CO2 overnight. On the following day, 1.5 μM Fluo-4-AM dye (Invitrogen) in complete medium is added and incubated for 1 hour at RT. Cells are harvested, washed twice in Ca^2+-free HBSS buffer and plated in 35 μL Ca^2+-free HBSS buffer in a 384 well plate. 10 μL of a test compound prepared in a Ca^2+-free HBSS solution at 4.5× of the desired concentration is added to a well and incubated for 5 minutes at RT. 10 μL of thapsigargin prepared in a Ca^2+-free HBSS solution at 5.5× of the desired concentration (5.5 uM) is added to each well and incubated for an additional 25 minutes. The initial baseline fluorescence signal is measured with a FLIPR^384 (Molecular Devices) plate reader. 5 μL of 12× calcium in HBSS (12 mM) is added and changes in cellular fluorescence are measured with the FLIPR^384 plate reader. In each well, the change in the fluorescent signal as a function of time due to calcium entry into the cell is determined by calculating the difference between the fluorescent signal measured 7 seconds after calcium addition and the initial baseline fluorescence signal at time zero (t=0). This parameter is designated Upslope. The IC50 value is calculated as the concentration at which 50% of the Upslope is inhibited.

IC50, < 10 µM:
Cc1ccccc1CSc1nnnn1-c1cccc(C)c1C [1-(2,3-dimethylphenyl)-5-(2-methylbenzylthio)-1H-tetrazole]
COc1ccc(CSc2nnnn2-c2ccc(C)cc2C)cc1F [1-(2,4-dimethylphenyl)-5-(3-fluoro-4-methoxybenzylthio)-1H-tetrazole]
COc1cccc(CSc2nnnn2-c2ccc(C)cc2C)c1 [1-(2,4-dimethylphenyl)-5-(3-methoxybenzylthio)-1H-tetrazole]
Cc1ccc(C)c(-n2nnnc2SC(F)(F)c2c(F)c(F)c(F)c(F)c2F)c1 [1-(2,5-dimethylphenyl)-5-(perfluorobenzylthio)-1H-tetrazole]
CCOc1ccc(C(C)=O)cc1CSc1nnnn1-c1cc(C)ccc1C [1-(3-((1-(2,5-dimethylphenyl)-1H-tetrazol-5-ylthio)methyl)-4-ethoxyphenyl)ethanone]
Cc1ccc(C)c(-n2nnnc2SCc2ccccc2Br)c1 [5-(2-bromobenzylthio)-1-(2,5-dimethylphenyl)-1H-tetrazole]
